Test results as given in PMC11489226 (Archives of Toxicology, 2024).
Values joined by “and” are separate entries in the source; they are usually repeats but may differ in a detail not shown here. Identical values can stand only once.

How the values were obtained:
[1] = target: T1, CYP1A2 (Homo sapiens, UniProt P05177); test: Metabolism in transgenic HEK293 cells expressing CYP1A2 (LC-MS/MS of supernatant); conditions: for Quantification of metabolites generated from PCB28, 52, and 101: 20 µM parent PCB, 24 h, supernatant; for Metabolite concentration formed, range across cell clones: HEK293CYP1A2 cell clones, 20 µM PCB28, 24 h
T1 sequence (P05177 1-516): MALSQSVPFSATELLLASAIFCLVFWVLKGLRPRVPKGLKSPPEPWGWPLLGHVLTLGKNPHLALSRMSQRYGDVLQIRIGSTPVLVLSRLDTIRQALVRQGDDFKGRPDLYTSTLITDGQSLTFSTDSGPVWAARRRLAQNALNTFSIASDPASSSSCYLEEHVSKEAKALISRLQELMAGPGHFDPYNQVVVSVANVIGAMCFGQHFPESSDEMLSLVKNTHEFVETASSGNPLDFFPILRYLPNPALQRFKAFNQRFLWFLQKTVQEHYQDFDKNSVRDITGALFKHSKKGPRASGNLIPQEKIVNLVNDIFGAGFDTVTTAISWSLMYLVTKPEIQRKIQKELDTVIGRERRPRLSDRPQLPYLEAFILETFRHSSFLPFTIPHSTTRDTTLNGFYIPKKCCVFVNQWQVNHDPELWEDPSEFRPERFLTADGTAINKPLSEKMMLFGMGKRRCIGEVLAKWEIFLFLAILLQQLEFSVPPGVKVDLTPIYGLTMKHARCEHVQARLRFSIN
Description: (§1) For the generation of transgenic cell lines, we used semi-adherent HEK293 cells (DSMZ, ACC305, human embryonic kidney cells) which were cultured on a daily basis in DMEM medium supplemented with 10% (FCS) and 1% penicillin/streptomycin. In a first step CYP1A2, CYP2C8, CYP2C9, CYP3A4, CYP2A6, and CYP2E1 cDNA were cloned into the plasmid pcDNATM3.1/V5-His TOPO® using human liver RNA as a template and using the following primers: CYP1A2 for5′-[…]-3′, CYP1A2 rev 5′-[…]-3′; CYP2C8 for 5′-[…]-3′, CYP2C8 rev 5′-[…]-3′; CYP2C9 for 5′-[…]-3′, CYP2C9 rev 5′-[…]-3′; CYP3A4 for 5′-[…]-3′, CYP3A4 rev 5′-[…]-3′, CYP2A6 for 5′-[…]-3′, CYP2A6 rev 5′-[…]-3′; CYP2E1 for 5′-[…]-3′, CYP2E1 rev 5′-[…]-3′. Final constructs were verified with Sanger DNA sequencing and restriction digestion. For transfection, 3 × 10^6 HEK293 cells were pre-incubated in a 10 cm dish in DMEM medium with 10% FCS, but without antibiotics, for 18 to 24 h. When the cells reached approximately 70% confluency, they were transfected using TransIT-LT1 transfection reagent (Biozol, Eiching, Germany). The TransIT-LT1 reagent was warmed to room temperature and vortexed. 1.63 mL Opti-MEM, 16.25 µL plasmid DNA (1 µg/µL), and 48.75 µL TransIT-LT1 reagent were mixed and incubated for 15 to 30 min. The mixture was then added dropwise to the medium of the cells, and the cells were incubated again at 37 °C and 5% CO2. After 24 h, the medium was replaced with standard medium and geneticin was added for selection (1 mg/mL). Cells were selected for 6–8 weeks in bulk culture, and single cell clones were obtained subsequently by limiting dilution. Each clone was checked for insertion by PCR using genomic DNA as a template.
(§2) Parallel samples were run without the addition of PCBs. At a confluence of 80%, PCBs (20 μM each, dissolved in ethanol) were added and cells were incubated for 24 h before harvest of supernatants. Supernatants were diluted 1:2 with 80 μL acetate buffer 0.1 M (pH = 5.3). 100 μL of this dilution were further incubated with 100 μL of ammonium acetate buffer 0.1 M (pH = 5.3) and 5 μL of β-Glucuronidase/Arylsulfatase enzyme overnight in a drying oven at 37 °C for enzymatic hydrolysis to release conjugated compounds. 50 μL of a mix of internal standards (10 ng/mL) and 600 μL of methanol were added to the samples, then mixed by vortexing for 1 min and centrifuged for 10 min at 3400g. The individual supernatants were transferred to glass LC vials and evaporated to approximately 50 μL at 45 °C under a gentle stream of nitrogen. Finally, 0.1 mol/ L ammonium acetate buffer was added to a final volume of 100 μL and then transferred to an insert for analysis.
(§3) HEK293 cells overexpressing the respective CYP enzymes were seeded onto 6-well plates and were treated with or without 10 µM of the respective probe drug in DMEM medium for 24 hours at 37 °C and 5 % CO2. After incubation 200 µL DMEM were collected, cells were washed with PBS and adherent cells were lysed in 500 µL methanol for 20 minutes. Analytes were measured by LC-MS/MS either in methanol cell lysates or in DMEM supernatant.
(§4) 50 µL of DMEM samples were protein precipitated by adding 200 µL of methanol and were centrifuged for 20 min, 17,000 g and 4°C. Supernatants were diluted in water or 40 % methanol according to dilution factor. Methanol cell lysates were diluted ½ with water and centrifuged for 20 min, 17,000 g and 4°C. 5 µL of the processed samples were injected for LC-MS analysis.

[2] = target: T2, CYP2A6 (Homo sapiens, UniProt P11509); test: Metabolism in transgenic HEK293 cells expressing CYP2A6; assay type: in vitro ADME; design: V5-His (vector-encoded) (C); expressed in transfected cells; conditions: 20 µM parent PCB, 24 h; for Quantification of metabolites generated from PCB28, 52, and 101: supernatant
T2 sequence (P11509 1-494): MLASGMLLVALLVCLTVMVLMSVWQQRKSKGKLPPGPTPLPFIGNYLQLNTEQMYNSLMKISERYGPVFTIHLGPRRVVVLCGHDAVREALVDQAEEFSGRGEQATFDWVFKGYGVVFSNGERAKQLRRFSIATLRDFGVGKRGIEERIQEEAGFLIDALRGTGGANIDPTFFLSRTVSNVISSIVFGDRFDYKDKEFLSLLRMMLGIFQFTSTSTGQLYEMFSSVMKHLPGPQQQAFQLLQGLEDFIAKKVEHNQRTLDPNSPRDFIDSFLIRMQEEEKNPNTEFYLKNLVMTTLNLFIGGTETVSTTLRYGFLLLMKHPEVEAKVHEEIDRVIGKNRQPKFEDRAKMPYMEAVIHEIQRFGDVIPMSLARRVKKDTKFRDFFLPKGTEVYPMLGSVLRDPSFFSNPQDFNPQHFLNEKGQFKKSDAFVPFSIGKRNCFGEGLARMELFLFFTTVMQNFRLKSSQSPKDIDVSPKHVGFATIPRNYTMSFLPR
Description: as §1, §2, §3, §4

[3] = target: CYP3A4 (Homo sapiens, UniProt P08684); test: Metabolism in transgenic HEK293 cells expressing CYP3A4; conditions: 20 µM parent PCB, 24 h, supernatant
Description: as §1, §2, §3, §4

[4] = target: CYP2E1 (Homo sapiens, UniProt P05181); test: Metabolism in transgenic HEK293 cells expressing CYP2E1; conditions: 20 µM parent PCB, 24 h, supernatant
Description: as §1, §2, §3, §4

Sequence of CYP3A4 (P08684 whole entry): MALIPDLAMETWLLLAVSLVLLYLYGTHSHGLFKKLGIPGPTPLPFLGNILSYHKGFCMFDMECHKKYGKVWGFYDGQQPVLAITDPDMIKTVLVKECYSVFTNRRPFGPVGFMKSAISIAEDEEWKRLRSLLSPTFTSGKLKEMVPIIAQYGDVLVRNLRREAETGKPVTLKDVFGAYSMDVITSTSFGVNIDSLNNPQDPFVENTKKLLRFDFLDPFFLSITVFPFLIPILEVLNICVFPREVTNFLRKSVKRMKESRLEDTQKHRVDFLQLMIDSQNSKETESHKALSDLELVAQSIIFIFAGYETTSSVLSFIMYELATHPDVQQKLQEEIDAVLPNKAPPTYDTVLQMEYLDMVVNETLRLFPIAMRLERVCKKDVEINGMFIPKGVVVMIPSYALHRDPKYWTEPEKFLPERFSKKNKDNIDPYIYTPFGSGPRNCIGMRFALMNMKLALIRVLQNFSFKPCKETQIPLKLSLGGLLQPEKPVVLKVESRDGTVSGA
Sequence of CYP2E1 (P05181 whole entry): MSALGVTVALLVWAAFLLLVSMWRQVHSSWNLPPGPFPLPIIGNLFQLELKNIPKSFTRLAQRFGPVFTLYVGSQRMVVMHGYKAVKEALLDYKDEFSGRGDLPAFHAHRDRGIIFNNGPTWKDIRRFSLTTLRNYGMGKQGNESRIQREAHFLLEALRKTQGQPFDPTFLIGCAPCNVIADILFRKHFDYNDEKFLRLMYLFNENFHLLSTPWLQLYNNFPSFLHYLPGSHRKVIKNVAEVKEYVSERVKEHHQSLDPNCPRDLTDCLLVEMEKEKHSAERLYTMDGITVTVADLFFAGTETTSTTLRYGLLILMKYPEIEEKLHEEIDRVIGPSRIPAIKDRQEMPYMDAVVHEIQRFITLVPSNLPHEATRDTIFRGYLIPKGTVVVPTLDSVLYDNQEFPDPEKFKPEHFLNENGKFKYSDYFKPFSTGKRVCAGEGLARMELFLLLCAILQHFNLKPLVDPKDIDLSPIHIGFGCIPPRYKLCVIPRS

Oc1cc(Cl)c(-c2ccc(Cl)cc2)cc1Cl [4-OHCB31, 2,4′,5-trichloro-4-biphenylol]
Quantification of metabolites generated from PCB28, 52, and 101 ([1]; CYP1A2, clone G5): 0,69 nM
Quantification of metabolites generated from PCB28, 52, and 101 ([1]; CYP1A2, clone G8): 1,11 nM
Metabolite concentration formed, range across cell clones [1]: 0.19–0.30 µg/L and 0.69–1.11 nM
Quantification of metabolites generated from PCB28, 52, and 101 ([2]; CYP2A6 Clone C4): 0,63 nM
Quantification of metabolites generated from PCB28, 52, and 101 ([2]; CYP2A6 Clone C5): 0,11 nM
Metabolite concentration formed, range across cell clones ([2]; HEK293CYP2A6 cell lines): 0.18–1.31 µg/L and 0.66–4.8 nM
Quantification of metabolites generated from PCB28, 52, and 101 ([3]; CYP3A4 Clone B4): <LOQ
Quantification of metabolites generated from PCB28, 52, and 101 ([3]; CYP3A4 Clone D10): <LOQ
Quantification of metabolites generated from PCB28, 52, and 101 ([3]; CYP3A4 Clone E6): <LOQ
Quantification of metabolites generated from PCB28, 52, and 101 ([4]; CYP2E1 Clone B4): <LOQ
Quantification of metabolites generated from PCB28, 52, and 101 ([4]; CYP2E1 Clone B5): <LOQ
Quantification of metabolites generated from PCB28, 52, and 101 ([4]; CYP2E1 Clone E6): <LOQ

Oc1cc(-c2ccc(Cl)cc2)c(Cl)cc1Cl [5-OHCB28, 2,4,4′-trichloro-5-biphenylol]
Quantification of metabolites generated from PCB28, 52, and 101 ([1]; CYP1A2, clone G5): 6,22 nM
Quantification of metabolites generated from PCB28, 52, and 101 ([1]; CYP1A2, clone G8): 9,07 nM
Metabolite concentration formed, range across cell clones [1]: 1.7–2.48 µg/L and 6.22–9.07 nM
Quantification of metabolites generated from PCB28, 52, and 101 ([2]; CYP2A6 Clone B7): 1,84 nM
Quantification of metabolites generated from PCB28, 52, and 101 ([2]; CYP2A6 Clone C4): 1,33 nM
Quantification of metabolites generated from PCB28, 52, and 101 ([2]; CYP2A6 Clone C5): 0,22 nM
Quantification of metabolites generated from PCB28, 52, and 101 ([3]; CYP3A4 Clone B4): <LOQ
Quantification of metabolites generated from PCB28, 52, and 101 ([3]; CYP3A4 Clone D10): <LOQ
Quantification of metabolites generated from PCB28, 52, and 101 ([3]; CYP3A4 Clone E6): <LOQ
Quantification of metabolites generated from PCB28, 52, and 101 ([4]; CYP2E1 Clone B4): <LOQ
Quantification of metabolites generated from PCB28, 52, and 101 ([4]; CYP2E1 Clone B5): <LOQ
Quantification of metabolites generated from PCB28, 52, and 101 ([4]; CYP2E1 Clone E6): <LOQ
